The record followed here is publication PMC10410761 (Proceedings of the National Academy of Sciences of the …, 2023).

Test [1] deals with NaV1.7. As to the kind of experiment: Whole-cell voltage clamp, sodium currents in rat DRG neurons. As to conditions: Pitstop2 20 µM, 30 min before recording, rat DRG neurons. The format is cell-based.
Test [2] addresses NaV1.7 (Rattus norvegicus, UniProt O08562). The description is as above. The format is cell-based. The conditions noted are these: Pitstop2 20 µM, vs AAV-SCR control.

Sequence of NaV1.7 (Rattus norvegicus, UniProt O08562) (O08562 whole entry): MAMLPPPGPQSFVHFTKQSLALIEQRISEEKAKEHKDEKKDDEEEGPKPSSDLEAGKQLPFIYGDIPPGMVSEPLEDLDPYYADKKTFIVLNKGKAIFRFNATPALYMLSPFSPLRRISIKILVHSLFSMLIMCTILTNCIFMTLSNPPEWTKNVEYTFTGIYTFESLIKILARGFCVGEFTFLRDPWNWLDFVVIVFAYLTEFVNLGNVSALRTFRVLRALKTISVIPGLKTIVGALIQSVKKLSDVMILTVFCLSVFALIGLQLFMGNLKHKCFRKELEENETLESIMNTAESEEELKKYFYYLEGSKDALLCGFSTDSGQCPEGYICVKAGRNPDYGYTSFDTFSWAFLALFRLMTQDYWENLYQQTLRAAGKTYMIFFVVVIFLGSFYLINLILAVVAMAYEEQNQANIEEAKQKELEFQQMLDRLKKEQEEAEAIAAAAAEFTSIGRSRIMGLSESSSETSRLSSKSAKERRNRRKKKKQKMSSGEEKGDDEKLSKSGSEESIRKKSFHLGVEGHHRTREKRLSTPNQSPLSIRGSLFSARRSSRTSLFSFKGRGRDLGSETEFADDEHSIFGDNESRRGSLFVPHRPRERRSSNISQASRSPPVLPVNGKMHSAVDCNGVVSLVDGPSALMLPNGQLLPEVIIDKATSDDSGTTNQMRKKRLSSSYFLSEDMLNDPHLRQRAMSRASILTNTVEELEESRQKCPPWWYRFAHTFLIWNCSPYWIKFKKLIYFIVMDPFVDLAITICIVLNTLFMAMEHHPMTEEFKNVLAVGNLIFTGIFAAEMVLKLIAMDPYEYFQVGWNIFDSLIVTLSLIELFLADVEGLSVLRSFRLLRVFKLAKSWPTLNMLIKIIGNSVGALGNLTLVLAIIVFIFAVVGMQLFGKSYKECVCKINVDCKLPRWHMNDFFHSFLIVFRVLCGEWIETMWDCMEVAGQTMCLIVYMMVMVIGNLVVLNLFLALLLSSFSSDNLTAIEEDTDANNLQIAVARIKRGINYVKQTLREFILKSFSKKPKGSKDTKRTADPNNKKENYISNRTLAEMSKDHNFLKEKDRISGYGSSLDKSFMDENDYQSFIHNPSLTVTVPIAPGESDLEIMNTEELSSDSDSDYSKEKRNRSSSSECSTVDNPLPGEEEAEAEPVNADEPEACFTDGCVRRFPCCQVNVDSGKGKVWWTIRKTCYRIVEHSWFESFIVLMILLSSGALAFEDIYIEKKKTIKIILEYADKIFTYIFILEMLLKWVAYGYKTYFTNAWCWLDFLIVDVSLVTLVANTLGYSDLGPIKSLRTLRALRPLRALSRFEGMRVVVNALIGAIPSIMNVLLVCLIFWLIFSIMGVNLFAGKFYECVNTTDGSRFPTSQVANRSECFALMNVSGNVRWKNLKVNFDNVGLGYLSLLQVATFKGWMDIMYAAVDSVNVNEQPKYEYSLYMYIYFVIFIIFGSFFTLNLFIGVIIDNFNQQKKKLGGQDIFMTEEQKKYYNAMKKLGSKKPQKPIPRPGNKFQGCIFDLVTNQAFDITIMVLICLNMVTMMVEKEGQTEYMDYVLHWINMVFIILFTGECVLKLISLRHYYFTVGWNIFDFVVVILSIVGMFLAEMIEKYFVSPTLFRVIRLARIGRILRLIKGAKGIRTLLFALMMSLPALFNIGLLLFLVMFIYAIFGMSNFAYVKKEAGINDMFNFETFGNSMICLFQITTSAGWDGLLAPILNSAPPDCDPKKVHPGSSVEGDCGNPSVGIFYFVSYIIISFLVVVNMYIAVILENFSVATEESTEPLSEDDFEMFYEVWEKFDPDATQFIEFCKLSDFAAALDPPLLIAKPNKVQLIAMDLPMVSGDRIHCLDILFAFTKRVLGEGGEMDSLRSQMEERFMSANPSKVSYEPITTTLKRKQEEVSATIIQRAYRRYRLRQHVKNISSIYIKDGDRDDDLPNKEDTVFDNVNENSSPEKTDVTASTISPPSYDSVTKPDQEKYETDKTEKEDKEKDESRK

With `O=C1NC(=NS(=O)(=O)c2cccc3ccccc23)S/C1=C\c1ccc(Br)cc1` [Pitstop2], the “Decrease of sodium currents imposed by Myr-TAT-NaV1.7-CRS” value in the test on NaV1.7 [1] is on record as “rescued”. For the same compound, the “Inhibition of NaV1.7 current in AAV-NaV1.7-CRS transfected DRG neurons” value at NaV1.7 [2] is on record as “rescued”.
